Results as given in paper PMC5655388, “Nicotinamide-based diamides derivatives as potential cytotoxic agents: synthesis and biological evaluation” (Chemistry Central Journal, 2017).
Values after ≈ are worked out from the molar mass of the structure shown.

How the values were obtained:
[1] = MTT in vitro cytotoxicity assay, MDCK normal cells; assay type: cell-based, canine; settings: dog, MDCK normal kidney cells, mean ± SD
Method: (§1) All newly prepared nicotinamide-based diamides derivatives 4a–k and several similar diamides 4l–o were evaluated for their in vitro cytotoxic effects against NCI-H460 (Human large cell lung cancer cell line), A549 (Human lung cancer cell line), NCI-H1975 (Human lung cancer cell line), HL-7702 (Human normal liver cells), and MDCK (Madin-Darby canine kidney cells) cell lines by the modified MTT (3-(4,5-dimethylthiazol-2-yl)-2,5-diphenyl tetrazolium bromide) assay using 5-FU (5-Fluorouracil) as a positive control.
(§2) The in vitro cytotoxicity of the synthesized compounds against different human lung cancer cell lines (NCI-H460, A549, NCI-H1975) and normal cells (HL-7702 and MDCK) were measured with the 3-(4,5-dimethylthiazol-2-yl)-2,5-diphenyl tetrazolium bromide (MTT) assay. All the data of the experiment were analyzed with SPSS software, and the 50% inhibitory concentrations (IC50) of each compound for the different cell lines were determined. A control was run for each test, and all assays were performed in triplicate on three independent experiments, and measurement data were expressed as the mean ± SD.

[2] = system: NCI-H460 (Human large cell lung cancer cell line); test: MTT in vitro cytotoxicity assay, NCI-H460; assay type: cell-based; settings: for IC50: Homo sapiens, NCI-H460 cells, MTT assay, mean ± SD; for Cytotoxic (inhibitory) activity at single concentration, NCI-H460: 40 µg/mL, preliminary screen (Fig. 4), result in words
Method: as §1, §2

[3] = system: NCI-H1975 (Human lung cancer cell line); test: MTT in vitro cytotoxicity assay, NCI-H1975; assay type: cell-based; settings: for IC50: Homo sapiens, NCI-H1975 cells, MTT assay, mean ± SD; for Cytotoxic (inhibitory) activity at single concentration, NCI-H1975: 40 µg/mL, preliminary screen (Fig. 4), result in words
Method: as §1, §2

[4] = MTT in vitro cytotoxicity assay, HL-7702 normal cells; assay type: cell-based; settings: human, HL-7702 normal liver cells, mean ± SD
Method: as §1, §2

[5] = system: A549 (Human lung cancer cell line); test: MTT in vitro cytotoxicity assay, A549; assay type: cell-based; settings: for IC50: Homo sapiens, A549 cells, MTT assay, mean ± SD; for Cytotoxic (inhibitory) activity at single concentration, A549: 40 µg/mL, preliminary screen (Fig. 4), result in words
Method: as §1, §2

Row | Compound | IC50 [1] | IC50 [2] | IC50 [3] | IC50 [4] | IC50 [5] | Cytotoxic (inhibitory) activity at single concentration, NCI-H460 [2] | Cytotoxic (inhibitory) activity at single concentration, NCI-H1975 [3] | Cytotoxic (inhibitory) activity at single concentration, A549 [5]
1 | NC(=O)c1cccnc1NC(=O)c1ccccc1Nc1cccc(C(F)(F)F)c1 [4a, 2-(2-((3-(Trifluoromethyl)phenyl)amino)benzamido)nicotinamide] | > 40 µg/mL | > 40 µg/mL | > 40 µg/mL | > 40 µg/mL | > 40 µg/mL | – | – | –
2 | CNC(=O)c1cccnc1NC(=O)c1ccccc1Nc1cccc(C(F)(F)F)c1 [4b, N-Methyl-2-(2-((3-(trifluoromethyl)phenyl)amino)benzamido)nicotinamide] | > 40 µg/mL | 36.7 ± 2.8 µg/mL (≈ 88.5 µM) | > 40 µg/mL | > 40 µg/mL | > 40 µg/mL | – | – | –
3 | CC(O)CNC(=O)c1cccnc1NC(=O)c1ccccc1Nc1cccc(C(F)(F)F)c1 (centres unmarked) [4c, N-(2-Hydroxypropyl)-2-(2-((3-(trifluoromethyl)phenyl)amino)benzamido)nicotinamide] | 17 ± 0.84 µg/mL (≈ 37 µM) | 20.6 ± 1.37 µg/mL (≈ 45 µM) | 27.2 ± 2.76 µg/mL (≈ 59.4 µM) | 19.7 ± 0.45 µg/mL (≈ 43 µM) | 26.3 ± 3.22 µg/mL (≈ 57.4 µM) | significant inhibitory activities | significant inhibitory activities | significant inhibitory activities
4 | CC(=O)CNC(=O)c1cccnc1NC(=O)c1ccccc1Nc1cccc(C(F)(F)F)c1 [4d, N-(2-Oxopropyl)-2-(2-((3-(trifluoromethyl)phenyl)amino)benzamido)nicotinamide] | 13.4 ± 0.29 µg/mL (≈ 29.5 µM) | 4.07 ± 1.3 µg/mL (≈ 8.92 µM) | 12.8 ± 1.59 µg/mL (≈ 28.1 µM) | 26.9 ± 0.95 µg/mL (≈ 58.9 µM) | 13.1 ± 2.45 µg/mL (≈ 28.7 µM) | significant inhibitory activities | significant inhibitory activities | significant inhibitory activities
5 | Cc1cc(Cl)cc(C(N)=O)c1NC(=O)c1cccnc1Nc1cccc(C(F)(F)F)c1 [4e, N-(2-Carbamoyl-4-chloro-6-methylphenyl)-2-((3-(trifluoromethyl)phenyl)amino)nicotinamide] | > 40 µg/mL | > 40 µg/mL | > 40 µg/mL | > 40 µg/mL | > 40 µg/mL | – | – | selective cytotoxicity
6 | CNC(=O)c1cc(Cl)cc(C)c1NC(=O)c1cccnc1Nc1cccc(C(F)(F)F)c1 [4f, N-(4-Chloro-2-methyl-6-(methylcarbamoyl)phenyl)-2-((3-(trifluoromethyl)phenyl)amino)nicotinamide] | > 40 µg/mL | > 40 µg/mL | > 40 µg/mL | > 40 µg/mL | > 40 µg/mL | – | – | –
7 | NC(=O)c1cccnc1NC(=O)c1cccnc1Nc1cccc(C(F)(F)F)c1 [4g, N-(3-Carbamoylpyridin-2-yl)-2-((3-(trifluoromethyl)phenyl)amino)nicotinamide] | 13 ± 1.27 µg/mL (≈ 32.5 µM) | 9.17 ± 2.02 µg/mL (≈ 22.8 µM) | 10.8 ± 2.22 µg/mL (≈ 27 µM) | 9.86 ± 0.34 µg/mL (≈ 24.6 µM) | 20.1 ± 0.48 µg/mL (≈ 50.1 µM) | significant inhibitory activities | significant inhibitory activities | significant inhibitory activities
8 | CNC(=O)c1cccnc1NC(=O)c1cccnc1Nc1cccc(C(F)(F)F)c1 [4h, N-Methyl-2-(2-((3-(trifluoromethyl)phenyl)amino)nicotinamido)nicotinamide] | 11.1 ± 0.24 µg/mL (≈ 26.6 µM) | 9.31 ± 2.66 µg/mL (≈ 22.4 µM) | 12.4 ± 2.52 µg/mL (≈ 29.9 µM) | 11.6 ± 2.08 µg/mL (≈ 28 µM) | 17.2 ± 3.4 µg/mL (≈ 41.4 µM) | significant inhibitory activities | significant inhibitory activities | significant inhibitory activities
9 | CC(O)CNC(=O)c1cccnc1NC(=O)c1cccnc1Nc1cccc(C(F)(F)F)c1 (centres unmarked) [4i, N-(2-Hydroxypropyl)-2-(2-((3-(trifluoromethyl)phenyl)amino)nicotinamido)nicotinamide] | 11.62 ± 0.06 µg/mL (≈ 25.3 µM) | 13.1 ± 4.49 µg/mL (≈ 28.5 µM) | 9.15 ± 1.64 µg/mL (≈ 19.9 µM) | 14.5 ± 2.19 µg/mL (≈ 31.6 µM) | 16.5 ± 3.53 µg/mL (≈ 36 µM) | significant inhibitory activities | significant inhibitory activities | significant inhibitory activities
10 | NC(=O)c1cc2ccccc2cc1NC(=O)c1cccnc1Nc1cccc(C(F)(F)F)c1 [4j, N-(3-Carbamoylnaphthalen-2-yl)-2-((3-(trifluoromethyl)phenyl)amino)nicotinamide] | 14.3 ± 0.66 µg/mL (≈ 31.7 µM) | 38.4 ± 3.95 µg/mL (≈ 85.3 µM) | 25.2 ± 3.35 µg/mL (≈ 55.9 µM) | 18.1 ± 1.63 µg/mL (≈ 40.2 µM) | 24.8 ± 3 µg/mL (≈ 55 µM) | – | – | –
11 | CNC(=O)c1cc2ccccc2cc1NC(=O)c1cccnc1Nc1cccc(C(F)(F)F)c1 [4k, N-(3-(Methylcarbamoyl)naphthalen-2-yl)-2-((3-(trifluoromethyl)phenyl)amino)nicotinamide] | > 40 µg/mL | > 40 µg/mL | > 40 µg/mL | > 40 µg/mL | 35.3 ± 2.19 µg/mL (≈ 76 µM) | – | – | selective cytotoxicity
12 | Cc1cc(Cl)cc(C(N)=O)c1NC(=O)c1ccccc1Nc1cccc(C(F)(F)F)c1 [4l, 5-Chloro-3-methyl-2-(2-((3-(trifluoromethyl)phenyl)amino)benzamido)benzamide] | > 40 µg/mL | > 40 µg/mL | > 40 µg/mL | > 40 µg/mL | > 40 µg/mL | – | – | selective cytotoxicity
13 | CNC(=O)c1cc(Cl)cc(C)c1NC(=O)c1ccccc1Nc1cccc(C(F)(F)F)c1 [4m, 5-Chloro-N,3-dimethyl-2-(2-((3-(trifluoromethyl)phenyl)amino)benzamido)benzamide] | 21.2 ± 3.59 µg/mL (≈ 46 µM) | 6.85 ± 0.23 µg/mL (≈ 14.8 µM) | 10.8 ± 1.02 µg/mL (≈ 23.4 µM) | 21.4 ± 1.79 µg/mL (≈ 46.4 µM) | 6.77 ± 0.86 µg/mL (≈ 14.7 µM) | good inhibition activities | good inhibition activities | good inhibition activities
14 | NC(=O)c1cc2ccccc2cc1NC(=O)c1ccccc1Nc1cccc(C(F)(F)F)c1 [4n, 3-(2-((3-(Trifluoromethyl)phenyl)amino)benzamido)-2-naphthamide] | 14.44 ± 0.01 µg/mL (≈ 32.1 µM) | > 40 µg/mL | > 40 µg/mL | > 40 µg/mL | > 40 µg/mL | – | – | –
15 | CNC(=O)c1cc2ccccc2cc1NC(=O)c1ccccc1Nc1cccc(C(F)(F)F)c1 [4o, N-Methyl-3-(2-((3-(trifluoromethyl)phenyl)amino)benzamido)-2-naphthamide] | > 40 µg/mL | > 40 µg/mL | > 40 µg/mL | > 40 µg/mL | > 40 µg/mL | – | – | –
16 | O=c1[nH]cc(F)c(=O)[nH]1 [5-FU, 5-Fluorouracil, reference compound] | 8.65 ± 0.81 µg/mL (≈ 66.5 µM) | 8.02 ± 2.35 µg/mL (≈ 61.7 µM) | 24.8 ± 5.8 µg/mL (≈ 190 µM) | 11.3 ± 1.67 µg/mL (≈ 87.3 µM) | 37.5 ± 3.25 µg/mL (≈ 288 µM) | – | – | –
